Experimental data taken from ChEMBL document CHEMBL2157860, “Optimization of a potent class of arylamide colony-stimulating factor-1 receptor inhibitors leading to anti-inflammatory clinical candidate 4-cyano-N-[2-(1-cyclohexen-1-yl)-4-[1-[(dimethylamino)acetyl]-4-piperidinyl]phenyl]-1H-imidazole-2-carboxamide (JNJ-28312141)” (J Med Chem, 2011).
Converted amounts (≈) assume the structure as drawn.

Assays:
[1] = Metabolic stability in mouse liver microsomes assessed as compound remaining after 10 mins; type: ADME, Microsome; conditions: read-out: Stability
[2] = Metabolic stability in human liver microsomes assessed as compound remaining after 10 mins; type: ADME, Microsome; conditions: read-out: Stability
[3] = Cmax in CD1 mouse at 5 mg/kg, po; type: ADME, organism-based; parameters: dose 5 mg/kg, route oral; conditions: in vivo
[4] = AUClast in CD1 mouse at 5 mg/kg, po; type: ADME, organism-based; parameters: time 0 - last, dose 5 mg/kg, route oral; conditions: plasma
[5] = Solubility of the compound in PBS; type: physicochemical
[6] = (§1) Half life in CD1 mouse at 0.5 mg/kg, iv; type: ADME, organism-based; parameters: dose 0.5 mg/kg, route intravenous; conditions: CD1, mouse, in vivo
[7] = (§2) Apparent volume of distribution in CD1 mouse at 0.5 mg/kg, iv; type: ADME, organism-based; parameters: dose 0.5 mg/kg, route intravenous; conditions: CD1, mouse, in vivo, read-out: Vz
[8] = Clearance in CD1 mouse at 0.5 mg/kg, iv; type: ADME, organism-based; parameters: dose 0.5 mg/kg, route intravenous; conditions: in vivo
[9] = Half life in CD1 mouse at 5 mg/kg, po; type: ADME, organism-based; parameters: dose 5 mg/kg, route oral; conditions: in vivo
[10] = Oral bioavailability in CD1 mouse at 5 mg/kg; type: ADME, organism-based; conditions: in vivo
[11] = Tmax in CD1 mouse at 5 mg/kg, po; type: ADME, organism-based; parameters: dose 5 mg/kg, route oral; conditions: in vivo
[12] = Drug uptake in CD1 mouse at 5 mg/kg, po after 4 hrs; type: ADME, organism-based; parameters: dose 5 mg/kg, route oral; conditions: in vivo, read-out: Drug uptake
Mus musculus [13] = assay: (§3) Drug uptake in CD1 mouse at 5 mg/kg, po after 8 hrs; type: ADME, organism-based; parameters: dose 5 mg/kg, route oral; conditions: mouse, in vivo, 8 h, BLD = below limit of detection
Liver = assay: Metabolic stability in mouse liver microsomes assessed as glutathione conjugation at 20 to 40 uM after 1 hr by LC/MS analysis; type: ADME, Microsome
[14] = as §3; type: ADME, organism-based; parameters: dose 5 mg/kg, route oral; conditions: CD1, mouse, in vivo, read-out: Drug uptake
Mus musculus [15] = assay: as §1; type: ADME, organism-based; parameters: dose 0.5 mg/kg, route intravenous; conditions: mouse, in vivo
Mus musculus [16] = assay: as §2; type: ADME, organism-based; parameters: dose 0.5 mg/kg, route intravenous; conditions: mouse, in vivo

| Structure (SMILES) | remaining at 10 min [1] | remaining at 10 min [2] | Cmax [3] | AUC(0-t) [4] | solubility [5] | half-life [6] | Vd [7] | clearance [8] | half-life [9] | bioavailability [10] | other results |
| --- | --- | --- | --- | --- | --- | --- | --- | --- | --- | --- | --- |
| CC(C)(N)C(=O)N1CCC(c2ccc(NC(=O)c3nc(C#N)c[nH]3)c(C3=CCCCC3)c2)CC1 | 93% | 94% |  |  |  |  |  |  |  |  |  |
| N#Cc1c[nH]c(C(=O)Nc2ccc(C3CCN(C(=O)CNCCO)CC3)cc2C2=CCCCC2)n1 | 79% | 67% |  |  |  |  |  |  |  |  |  |
| N#Cc1c[nH]c(C(=O)Nc2ccc(C3CCN(C(=O)[C@H](O)CO)CC3)cc2C2=CCCCC2)n1 | 100% | 89% |  |  |  |  |  |  |  |  |  |
| N#Cc1c[nH]c(C(=O)Nc2ccc(C3CCN(C(=O)Cc4c[nH]cn4)CC3)cc2C2=CCCCC2)n1 | 100% | 89% |  |  |  |  |  |  |  |  |  |
| N#Cc1c[nH]c(C(=O)Nc2ccc(C3CCN(C(=O)Cc4ccncc4)CC3)cc2C2=CCCCC2)n1 | 24% | 11% | 118 ng/mL | 68 ng·h/mL | 0.39 µM (≈ 0.193 µg/mL) | 0.41 h | 7.27 L/kg | 205 mL/min/kg | 0.23 h | 18% |  |
| N#Cc1c[nH]c(C(=O)Nc2ccc(C3CCN(CC(N)=O)CC3)cc2C2=CCCCC2)n1 | 79% | 81% | 55 ng/mL | 141 ng·h/mL | 28.6 µM (≈ 12.4 µg/mL) | 1.39 h | 6.43 L/kg | 53.3 mL/min/kg | 0.88 h | 9.8% |  |
| CN(C)CC(=O)N1CCC(c2ccc(NC(=O)c3nc(C#N)c[nH]3)c(C3=CCCCC3)c2)CC1 | 81% | 87% | 296 ng/mL | 1020 ng·h/mL | 37.3 µM (≈ 17.2 µg/mL) | 1.36 h | 7.11 L/kg | 60.6 mL/min/kg | 2.33 h | 83% |  |
| N#Cc1c[nH]c(C(=O)Nc2ccc(C3CCN(C(=O)c4cc[n+]([O-])cc4)CC3)cc2C2=CCCCC2)n1 | 92% | 100% |  |  |  |  |  |  |  |  |  |
| N#CCCN1CCC(c2ccc(NC(=O)c3nc(C#N)c[nH]3)c(C3=CCCCC3)c2)CC1 | 93% | 100% |  |  | 11.8 µM (≈ 5.06 µg/mL) |  |  |  |  |  |  |
| N#Cc1c[nH]c(C(=O)Nc2ccc(C3CCN(Cc4ccccn4)CC3)cc2C2=CCCCC2)n1 | 79% | 75% |  |  |  |  |  |  |  |  |  |
| N#Cc1c[nH]c(C(=O)Nc2ccc(C3CCN(C(N)=O)CC3)cc2C2=CCCCC2)n1 | 70% | 78% |  |  |  |  |  |  |  |  |  |
| CN(CCO)CC(=O)N1CCC(c2ccc(NC(=O)c3nc(C#N)c[nH]3)c(C3=CCCCC3)c2)CC1 | 60% | 69% |  |  |  |  |  |  |  |  |  |
| N#Cc1c[nH]c(C(=O)Nc2ccc(C3CCNCC3)cc2C2=CCCCC2)n1.O=C(O)C(F)(F)F | 96% | 100% | 50 ng/mL | 95.2 ng·h/mL | 38.8 µM | 7.16 h | 32 L/kg | 51.7 mL/min/kg | 2 h | 12% | Tmax [11]: 0.25 h; concentration at 4 h [12]: 7 ng/mL; Drug uptake (Mus musculus [13]): BLD; Stability (Liver): Stable |
| N#Cc1c[nH]c(C(=O)Nc2ccc(C3CCN(C(=O)CN4CCOCC4)CC3)cc2C2=CCCCC2)n1 | 23% | 66% |  |  |  |  |  |  |  |  |  |
| CS(=O)(=O)CC(=O)N1CCC(c2ccc(NC(=O)c3nc(C#N)c[nH]3)c(C3=CCCCC3)c2)CC1 | 86% | 100% | 24 ng/mL | 125 ng·h/mL | 0.91 µM (≈ 0.451 µg/mL) | 1.2 h | 1.58 L/kg | 23.9 mL/min/kg | 1.55 h | 2.3% |  |
| CC1CCN(c2cc(N3CCN(C)CC3)ccc2NC(=O)c2ccc(C#N)o2)CC1 |  |  | 285 ng/mL | 1160 ng·h/mL |  | 3 h | 12.3 L/kg | 46 mL/min/kg | 3.1 h | 75% | Tmax [11]: 0.5 h; concentration at 4 h [12]: 183 ng/mL; concentration at 8 h [14]: 64 ng/mL |
| N#Cc1c[nH]c(C(=O)Nc2ccc(C3CCN(CCN4CCOCC4)CC3)cc2C2=CCCCC2)n1 | 96% | 77% | 461 ng/mL | 1550 ng·h/mL | 25.9 µM (≈ 12.7 µg/mL) |  |  |  | 2.37 h | 101% | t1/2 (Mus musculus [15]): 0.23 h; Vz (Mus musculus [16]): 8.99 L/kg |
| N#Cc1c[nH]c(C(=O)Nc2ccc(C3CCN(CC(=O)O)CC3)cc2C2=CCCCC2)n1 | 70% | 98% |  |  |  |  |  |  |  |  |  |
| N#Cc1c[nH]c(C(=O)Nc2ccc(C3CCN(CCO)CC3)cc2C2=CCCCC2)n1 | 89% | 100% |  |  | > 40 µM |  |  |  |  |  |  |
| Cn1cnc(CC(=O)N2CCC(c3ccc(NC(=O)c4nc(C#N)c[nH]4)c(C4=CCCCC4)c3)CC2)c1 | 90% | 82% | 81 ng/mL | 101 ng·h/mL | 36.7 µM (≈ 18.3 µg/mL) | 0.54 h | 3.85 L/kg | 81.8 mL/min/kg | 0.4 h | 13% |  |
| N#Cc1c[nH]c(C(=O)Nc2ccc(C3CCN(C(=O)NCCO)CC3)cc2C2=CCCCC2)n1 | 61% | 80% | 24 ng/mL | 129 ng·h/mL | 8.2 µM (≈ 3.79 µg/mL) | 2.41 h | 10.3 L/kg | 49.2 mL/min/kg | 1.63 h | 9.3% |  |
| N#Cc1c[nH]c(C(=O)Nc2ccc(C3CCN(C(=O)Cc4ccccn4)CC3)cc2C2=CCCCC2)n1 | 37% | 34% |  |  | 1.6 µM (≈ 0.791 µg/mL) |  |  |  |  |  |  |
| CC(=O)N1CCC(c2ccc(NC(=O)c3nc(C#N)c[nH]3)c(C3=CCCCC3)c2)CC1 | 86% | 95% | 209 ng/mL | 454 ng·h/mL | 26.1 µM (≈ 10.9 µg/mL) | 1.2 h | 2.8 L/kg | 27 mL/min/kg | 1.88 h | 15% | Tmax [11]: 0.5 h; concentration at 4 h [12]: 54 ng/mL; concentration at 8 h [14]: 9 ng/mL; Stability (Liver): Stable |
| N#Cc1c[nH]c(C(=O)Nc2ccc(C3CCN(c4ccccn4)CC3)cc2C2=CCCCC2)n1 | 77% | 77% |  |  |  |  |  |  |  |  |  |
| N#Cc1c[nH]c(C(=O)Nc2ccc(C3CCN(C(=O)c4ccc[n+]([O-])c4)CC3)cc2C2=CCCCC2)n1 | 89% | 100% |  |  |  |  |  |  |  |  |  |
| N#Cc1c[nH]c(C(=O)Nc2ccc(C3CCN(C(CO)CO)CC3)cc2C2=CCCCC2)n1 | 94% | 100% |  |  |  |  |  |  |  |  |  |
| N#Cc1c[nH]c(C(=O)Nc2ccc(C3CCN(C(=O)Cc4cccnc4)CC3)cc2C2=CCCCC2)n1 | 21% | 28% |  |  | 10.4 µM (≈ 5.14 µg/mL) |  |  |  |  |  |  |
| CS(=O)(=O)CCN1CCC(c2ccc(NC(=O)c3nc(C#N)c[nH]3)c(C3=CCCCC3)c2)CC1 | 98% | 94% | 866 ng/mL | 2130 ng·h/mL | 4.2 µM (≈ 2.02 µg/mL) | 1.44 h | 3.84 L/kg | 30.7 mL/min/kg | 1.55 h | 88% |  |
| N#Cc1c[nH]c(C(=O)Nc2ccc(C3CCN(C(=O)c4cccnc4)CC3)cc2C2=CCCCC2)n1 | 66% | 56% |  |  |  |  |  |  |  |  |  |
| N#Cc1c[nH]c(C(=O)Nc2ccc(C3CCN(C(=O)CCN4CCOCC4)CC3)cc2C2=CCCCC2)n1 | 23% | 57% |  |  |  |  |  |  |  |  |  |
